In patent US20130212744A1, “METHOD OF REDUCING INSECT-VECTORED VIRAL INFECTIONS” (priority 2010, published 2013):

How the values were obtained:
Type in all cases: in vivo
Settings in all cases: 150 g ai/hl
[1] = tested on: whitefly Bemisia tabaci adults; experiment: Foliar use field trial on tomato, efficacy on whitefly adults
Description: (§1) Two studies were carried out in Elhasanya, Egypt in 2009 on tomato plants of the variety Fayrouz with the main goal to measure efficacy on the whitefly Bemisia tabaci. The plot size was 4.8 m^2 and 6 replicates were used in the trial. Products were applied 3 times on young tomato plants at BBCH stages 14, 17 and 51 at spray intervals between 12 and 19 days. The spray volume was at the first application 350 l/ha and later 500 l/ha. The evaluation of this study was done counting the adult whiteflies (Bemisia tabaci) as well as the nymphs and the eggs in each plot. In addition to the direct whitefly effect, visual symptoms of the virus, mainly TYLCV (tomato yellow leaf curl virus) were evaluated also.
(§2) ASM=Acibenzolar-S-methyl. WG 50=Actigard® 50WG, a water-dispersible granule with the active ingredient ASM CYNT=Cyantraniliprole. WG 40=Cyazypyr®, a water dispersable granule with the active ingredient CYNT. Results on whitefly adults. Trial 1

[2] = tested on: TYLCV (tomato yellow leaf curl virus); experiment: Foliar use field trial on tomato, infected leaf area by TYLC virus
Description: as §1, §2
Evaluation of percentage of infected leaf area by TYLC virus (average of 45 plants evaluated per treatment) Trial 1

[3] = tested on: whitefly Bemisia tabaci nymphs; experiment: Foliar use field trial on tomato, efficacy on whitefly nymphs
Description: as §1, §2

Question: With Cc1cc(C)c(C2=C(OC(=O)CC(C)(C)C)C3(CCCC3)OC2=O)c(C)c1 [Spiromesifen] as the molecule, how does the “% Efficacy on Adults” value ([1]; 5DAA1, Trial 1) read?
Answer: Its value is 61%.

Question: And the “% Efficacy on Adults” value ([1]; 5DAA1, Trial 2)?
Answer: Its value is 61%.

Question: What about the “% Efficacy on Adults” value ([1]; 5DAA2, Trial 1) of the same molecule?
Answer: Its value is 71%.

Question: What about the “% Efficacy on Adults” value ([1]; 5DAA2, Trial 2) of the same molecule?
Answer: Its value is 71%.

Question: What about the “% Efficacy on Adults” value ([1]; 5DAA3, Trial 1) of the same molecule?
Answer: The value was 81%.

Question: What about the “% Efficacy on Adults” value ([1]; 5DAA3, Trial 2) of the same molecule?
Answer: The value was 81%.

Question: And the “% Efficacy on Adults” value ([1]; 10DAA1, Trial 1)?
Answer: Its value is 43%.

Question: And the “% Efficacy on Adults” value ([1]; 10DAA1, Trial 2)?
Answer: The value was 43%.

Question: What about the “% Efficacy on Adults” value ([1]; 10DAA2, Trial 1) of the same molecule?
Answer: The value was 69%.

Question: And the “% Efficacy on Adults” value ([1]; 10DAA2, Trial 2)?
Answer: Its value is 69%.

Question: What about the “% Efficacy on Adults” value ([1]; 10DAA3, Trial 1) of the same molecule?
Answer: The value was 76%.

Question: What about the “% Efficacy on Adults” value ([1]; 10DAA3, Trial 2) of the same molecule?
Answer: Its value is 76%.

Question: What about the “% Efficacy on Adults” value ([1]; 15DAA3, Trial 1) of the same molecule?
Answer: The value was 67%.

Question: And the “% Efficacy on Adults” value ([1]; 15DAA3, Trial 2)?
Answer: The value was 67%.

Question: What about the “% Efficacy on Adults” value ([1]; 20DAA3, Trial 1) of the same molecule?
Answer: Its value is 54%.

Question: And the “% Efficacy on Adults” value ([1]; 20DAA3, Trial 2)?
Answer: Its value is 54%.

Question: And the “% Efficacy on Adults Avg % C” value ([1]; Avg, Trial 1)?
Answer: Its value is 65%.

Question: What about the “% Infected Surface area with virus / plant” value ([2]; 5DAA2, Trial 1) of the same molecule?
Answer: Its value is 1.1%.

Question: What about the “% Infected Surface area with virus / plant” value ([2]; 5DAA2, Trial 2) of the same molecule?
Answer: The value was 1.1%.

Question: And the “% Infected Surface area with virus / plant” value ([2]; 5DAA3, Trial 1)?
Answer: The value was 0.8%.

Question: And the “% Infected Surface area with virus / plant” value ([2]; 5DAA3, Trial 2)?
Answer: Its value is 0.8%.

Question: What about the “% Infected Surface area with virus / plant” value ([2]; 10DAA3, Trial 1) of the same molecule?
Answer: The value was 7.1%.

Question: And the “% Infected Surface area with virus / plant” value ([2]; 10DAA3, Trial 2)?
Answer: Its value is 7.1%.

Question: What about the “% Infected Surface area with virus / plant” value ([2]; 15DAA3, Trial 1) of the same molecule?
Answer: The value was 8.8%.

Question: And the “% Infected Surface area with virus / plant” value ([2]; 15DAA3, Trial 2)?
Answer: The value was 8.8%.

Question: What about the “% Infected Surface area with virus / plant” value ([2]; 20DAA3, Trial 1) of the same molecule?
Answer: The value was 11.1%.

Question: What about the “% Infected Surface area with virus / plant” value ([2]; 20DAA3, Trial 2) of the same molecule?
Answer: The value was 11.1%.

Question: And the “% Infected Surface area with virus / plant” value ([2]; 24DAA3, Trial 1)?
Answer: Its value is 11.5%.

Question: And the “% Infected Surface area with virus / plant” value ([2]; 24DAA3, Trial 2)?
Answer: The value was 11.5%.

Question: And the “% Efficacy on Nymphs” value ([3]; 5DAA2, Trial 1)?
Answer: The value was 86%.

Question: And the “% Efficacy on Nymphs” value ([3]; 5DAA2, Trial 2)?
Answer: Its value is 86%.

Question: What about the “% Efficacy on Nymphs” value ([3]; 5DAA3, Trial 1) of the same molecule?
Answer: Its value is 88%.

Question: What about the “% Efficacy on Nymphs” value ([3]; 5DAA3, Trial 2) of the same molecule?
Answer: Its value is 88%.

Question: And the “% Efficacy on Nymphs” value ([3]; 10DAA2, Trial 1)?
Answer: The value was 85%.

Question: And the “% Efficacy on Nymphs” value ([3]; 10DAA2, Trial 2)?
Answer: The value was 85%.

Question: What about the “% Efficacy on Nymphs” value ([3]; 10DAA3, Trial 1) of the same molecule?
Answer: The value was 84%.

Question: And the “% Efficacy on Nymphs” value ([3]; 10DAA3, Trial 2)?
Answer: The value was 84%.

Question: And the “% Efficacy on Nymphs” value ([3]; 15DAA3, Trial 1)?
Answer: Its value is 81%.

Question: What about the “% Efficacy on Nymphs” value ([3]; 15DAA3, Trial 2) of the same molecule?
Answer: Its value is 81%.

Question: What about the “% Efficacy on Nymphs” value ([3]; 20DAA3, Trial 1) of the same molecule?
Answer: Its value is 76%.

Question: What about the “% Efficacy on Nymphs” value ([3]; 20DAA3, Trial 2) of the same molecule?
Answer: The value was 76%.

Question: And the “% Efficacy on Nymphs Avg % C” value ([3]; Avg, Trial 1)?
Answer: Its value is 83%.
